Structures are written as SMILES. Calls of active or inactive are those of the source.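 The calls were made as follows: active = Compounds that kill half the cells at a concentration of 5 micromolar or below, from the fitted or estimated CC50; inactive = CC50 above 5 micromolar.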

In this assay the test system is Jurkat E6.1 viability, ATP luminescence, 48 h. Put plainly: Jurkat E6.1 cell cytotoxicity, CC50 determination, dose response, cytotoxicity control, ATP luminescence, 48 h, 60K MLSMR (AID 464).
The term CC50 denotes the concentration that lowers cell viability or growth by half. `CC(C)Oc1ccccc1C1CC(=O)Nc2cc3c(cc21)OCO3` (stereo unspecified): the CC50 is 0.812 µM.
On to `CCOc1cc(C(=O)N2CCc3cc(OC)c(OC)cc3C2)ccc1OC(F)F`, for which the CC50 was 0.366 µM.
With `CC(=O)C(C(C)=O)c1c(Cl)c(O)c(O)c2c(C(=O)c3ccccc3)coc12`, the CC50 was 8.76 µM (inactive).
With `CC(C)C1N=C2c3ccccc3N=C(SCC(=O)c3ccc(O)c(O)c3)N2C1=O` (stereo unspecified) the figure was 10.2 µM (inactive); with `Cc1noc(C)c1CSc1nc2[nH]ncc2c(=O)n1-c1ccccc1`, 0.188 µM.
Take `CN1Cc2cc(C(=O)c3cc(Cl)cc(CSc4ncccn4)c3O)cnc2NC1=O`: the CC50 is 0.212 µM.
As for `CCCN1C(=O)c2ccccc2NC1c1ccc(OC)cc1O` (stereo unspecified), the figure is > 40 µM (inactive); as for `COc1cc(C(=O)N2CCN(c3ccc(C)cc3C)CC2)cc(OC)c1OC`, 1.69 µM; as for `N#Cc1nc(N2CCCCC2)nc(N2CCOCC2)n1`, 12.9 µM (inactive).
As for `CCCc1cc(C(=O)Nc2cc(Br)ccc2O)no1`, the figure is > 40 µM (inactive); as for `O=C(NCCN1CCOCC1)NC1(C(F)(F)F)Oc2ccc(Cl)cc2O1` (stereo unspecified), 8.23 µM (inactive); as for `Cn1cc(C(=O)c2ccc(Cl)cc2)cc1-c1nc2ccccc2n1C`, 23.3 µM (inactive).
With `O=C(Nc1nc(-c2ccc3c(c2)OCCO3)cs1)c1ccc(S(=O)(=O)N2CCCCC2)cc1` the figure was 8.3 µM (inactive); with `Cc1ccc(-c2csc3ncnc(Sc4nnc(CN5CCCCCC5=O)o4)c23)cc1`, 5.28 µM (inactive); with `Cc1cc(NC(=O)CSc2nc(-c3ccco3)cc(C(F)(F)F)n2)n(-c2ccccc2)n1`, 4.28 µM.
In the case of `Cc1cccc2cc3c(N)c(C(=O)N4CCOCC4)sc3nc12`, the CC50 was 0.95 µM.
With `CSC1=C(C#N)C(c2ccc(Cl)cc2)C2=C(CC(C)(C)CC2=O)N1` (stereo unspecified), the CC50 was 14.7 µM (inactive).
For `CCOC(=O)CCS(=O)(=O)c1nc(-c2ccccc2)cc(C(F)(F)F)n1`, the CC50 is 4.58 µM.
With `CCOC(=O)c1[nH]c(C)c(C(=O)Nc2cc(Cl)ccc2C)c1C` the figure was 0.248 µM; with `Cc1ccc(Oc2ccc(S(=O)(=O)N3CCOCC3)cc2C(N)=O)c(-n2nc3ccccc3n2)c1`, 2.31 µM; with `CCOc1ccc(S(=O)(=O)n2cnc3cc(C)c(C)cc32)cc1`, 4.83 µM.

Values taken from PubChem BioAssay AID464 (The Scripps Research Institute Molecular Screening Center, 2006).
